Test results reported in patent US8034827B2, “Phenanthridine derivatives as bradykinin antagonists” (Richter Gegeon Nyrt., priority 2005, dated 2011).

How the values were obtained:
[1] = biological target: T1, human recombinant bradykinin1 receptors (Homo sapiens, UniProt P46663); experiment: Human recombinant bradykinin B1 receptor binding; details: CHO cell membranes, [3H]-[Des-Arg10] Kallidin radioligand
T1 construct: host or cells: CHO cells
T1 sequence (P46663 1-353): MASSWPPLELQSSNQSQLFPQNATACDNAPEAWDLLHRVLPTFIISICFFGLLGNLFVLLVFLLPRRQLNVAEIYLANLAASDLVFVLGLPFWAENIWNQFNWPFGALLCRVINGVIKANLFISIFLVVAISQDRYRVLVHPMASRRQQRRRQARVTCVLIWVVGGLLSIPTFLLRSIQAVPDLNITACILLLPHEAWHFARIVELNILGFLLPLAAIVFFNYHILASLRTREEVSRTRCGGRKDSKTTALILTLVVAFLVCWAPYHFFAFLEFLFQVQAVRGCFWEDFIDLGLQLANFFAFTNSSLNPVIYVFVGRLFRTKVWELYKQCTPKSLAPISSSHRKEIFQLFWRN
Procedure: Receptor Binding Assays 1. Human Recombinant Bradykinin B1 Receptor Binding
Binding assays were carried out on human recombinant bradykinin1 receptors (expressed in CHO cells) according to the Euroscreen Technical Data Sheet (Cat. No.: ES-091). 20 μg protein/tube was incubated with [3,4-prolyl-3,4-^3H(N)]-[Des-Arg^10] Kallidin as radioligand. Non specific binding was determined in the presence of 10 μM Lys-des-Arg^9-Bradykinin. The final incubation volume was 250 μl. Samples were incubated for 15 min. at 25° C. then were rapidly vacuum filtered through GF/B filters presoaked for at least 1 h in 0.5% PEI. Radioactivity was determined by liquid scintillation spectroscopy.

[2] = biological target: T2, recombinant human B1 receptors (Homo sapiens, UniProt P46663); experiment: Antagonist potency by measurement of cytosolic calcium ion concentration in CHO-B1 cells (agonist LysDABK); format: cell-based; details: inhibition of LysDABK (EC80)-evoked [Ca2+]i elevation, fluo-4, read-out: B1 func.
T2 construct: host or cells: CHO (CHO-B1)
T2 sequence (P46663 1-353): T1 sequence (P46663 1-353)
Procedure: Assessment of Antagonist Potency at B1 and B2 Receptors In Vitro by Measurement of Cytosolic Calcium Ion Concentration with a Plate Reader Fluorimeter in Cells Expressing Recombinant Human B1 or B2 Receptors
Chinese hamster ovary (CHO) cells stably expressing recombinant human B1 (CHO-B1, Euroscreen) or B2 (CHO-B2, Perkin-Elmer) receptors were cultured in Dulbecco's Modified Eagle's Medium (DMEM) containing 10% Fetal Calf Serum (FCS), 100 U/ml penicillin, 0.1 mg/ml streptomycin, 0.25 μg/ml amphotericin B, 1% Minimum Essential Medium Eagle (MEM), non essential amino acid solution, 600 μg/ml G418, 1% pyruvate (for the B2 cell line). Cells were kept at 37° C. in a humidified incubator in an atmosphere of 5% CO2/95% air and were passaged 1:4 three times a week. Cells were plated at 1.5-2.5×10^4 cell/well on standard 96-well microplates, measurements of cytosolic calcium ion concentration ([Ca^2+]i) were carried out 1-2 days after cell plating.
Measurements of [Ca^2+]i were carried out on CHO-B1 and CHO-B2 cells stably expressing human B1 and B2 receptors, respectively. Cells were grown in standard 96-well microplates and before the measurement were loaded with a fluorescent Ca^2+-sensitive dye, fluo-4/AM (2 μM): after removing the culture medium the dye was added to the cells (dissolved in assay buffer: 145 mM NaCl, 5 mM KCl, 2 mM MgCl2, 2 mM CaCl2, 10 mM HEPES, 20 mM D-glucose, 2 mM probenecid, 100 μl/well) and cells were incubated at 37° C. in a humidified incubator in an atmosphere of 5% CO2/95% air for 40-120 min. To stop dye loading cells were washed twice with assay buffer. After washing, various concentrations of the test compounds (diluted in extracellular medium from a DMSO stock solution, final DMSO concentration was <0.1%) or buffer were added to each well depending on the experimental setup. After incubation at 37° C. for 20-25 min. baseline and agonist-evoked changes of [Ca^2+]i were measured column by column with a plate reader fluorimeter (Fluoroskan Ascent, Labsystems). Excitation and detection of emission was carried out from the bottom of the plate. Filters used for Fluo-4: excitation filter −485 nm, emission filter −538 nm. The whole measurement process was performed at 37° C. and was controlled by custom software. Inhibitory potency of the test compounds was assessed by measuring the reduction in the agonist-evoked [Ca^2+]i-elevation in the presence of different concentrations of the compounds. The agonists were LysDABK for CHO-B1, and bradykinin for CHO-B2 cells. Agonists were applied at an EC80 concentration, the EC80-values were derived from daily determined dose-response curves. Fluorescence data were expressed as ΔF/F (fluorescence change normalized to baseline). All treatments on a single plate were measured in multiple wells. Data from all wells with the same treatment were averaged and the average values were used for analysis. Inhibitory potency of a compound at a single concentration point was expressed as percent inhibition of the control agonist response. Sigmoidal concentration-inhibition curves were fitted to the data (derived from at least three independent experiments) and IC50-values were determined as the concentration that produces half of the maximal inhibition caused by the compound.

Row | Ki [1] | IC50 [2] | SMILES
1 | < 100 nM | 100 to 500 nM | CC(C)N1CCN(C(=O)C2CCN(S(=O)(=O)c3ccc(NCC(c4ccccc4)c4ccccc4)c(C(=O)N4CCOCC4)c3)CC2)CC1 [Example 70002460, 4-{2-[(2,2-diphenyl-ethyl)-amino]-5-{[4-/(4-<1-methyl-ethyl>-1-piperazinyl)-carbonyl/-1-piperidinyl]-sulfonyl}-benzoyl}-morpholine, reference compound]
2 | < 100 nM | < 100 nM | O=C(C[C@@H]1C(=O)Nc2ccccc2N1S(=O)(=O)c1ccc(Cl)c(Cl)c1)NCCc1ccc(C2=NCCN2)cc1 [Example 70004287, 2-[1-(3,4-dichloro-benzenesulfonyl)-3-oxo-1,2,3,4-tetrahydroquinoxalin-2(R)-yl]-N-{2-[4-(4,5-dihydro-1H-imidazol-2-yl)-phenyl]-ethyl}-acetamide, reference compound]
